Legend:
Assay in all cases: relative viability (nuclei count vs DMSO), 5 days (fraction); higher = more cells survive
[1] = compound: CC1=CC(=CC=C1)NC2=NC(=CS2)C3=CC=NC=C3 + N=C(N)NC(=N)NCCc1ccccc1 [Phenformin] (partner 250 µM)
Outline: (§1)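 Lung cancer cell lines were seeded in 1536-well plates and dosed by pin tool the next day, with either a single drug or a fixed anchor-drug dose combined with five library-drug doses (not always all listed) spaced in √10 steps. Five days later, one step fixed the cells and stained their nuclei (final 0.05% Triton X-100, 1% formaldehyde, 1 ug/ml Hoechst), and nuclei were counted on 4× images. Relative viability is the nuclei count in treated wells divided by the count in vehicle wells, and each value is the median of duplicate plates.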

Masitinib + Trametinib = compound: Cc1ccc(NC(=O)c2ccc(CN3CCN(C)CC3)cc2)cc1Nc1nc(-c2cccnc2)cs1 [Masitinib] + CC(=O)Nc1cccc(-n2c(=O)n(C3CC3)c(=O)c3c(Nc4ccc(I)cc4F)n(C)c(=O)c(C)c32)c1 [Trametinib] (partner 0.02 µM)
Outline: as §1

Masitinib + Pictilisib = compound: Cc1ccc(NC(=O)c2ccc(CN3CCN(C)CC3)cc2)cc1Nc1nc(-c2cccnc2)cs1 [Masitinib] + CS(=O)(=O)N1CCN(Cc2cc3nc(-c4cccc5[nH]ncc45)nc(N4CCOCC4)c3s2)CC1 [Pictilisib] (partner 1 µM)
Outline: as §1

Masitinib + Vorinostat = compound: Cc1ccc(NC(=O)c2ccc(CN3CCN(C)CC3)cc2)cc1Nc1nc(-c2cccnc2)cs1 [Masitinib] + O=C(CCCCCCC(=O)Nc1ccccc1)NO [Vorinostat] (partner 1 µM)
Outline: as §1

Cell Line	relative viability ([1]; first compound 0.08 µM)	relative viability ([1]; first compound 0.253 µM)	relative viability ([1]; first compound 0.8 µM)	relative viability ([1]; first compound 2.53 µM)	relative viability ([1]; first compound 8 µM)	relative viability (Masitinib + Trametinib; first compound 0.01 µM)	relative viability (Masitinib + Trametinib; first compound 0.03162 µM)	relative viability (Masitinib + Trametinib; first compound 0.1 µM)	relative viability (Masitinib + Trametinib; first compound 0.3162 µM)	relative viability (Masitinib + Trametinib; first compound 1 µM)	relative viability (Masitinib + Pictilisib; first compound 0.01 µM)	relative viability (Masitinib + Pictilisib; first compound 0.03162 µM)	relative viability (Masitinib + Pictilisib; first compound 0.1 µM)	relative viability (Masitinib + Pictilisib; first compound 0.3162 µM)	relative viability (Masitinib + Pictilisib; first compound 1 µM)	relative viability (Masitinib + Vorinostat; first compound 0.01 µM)	relative viability (Masitinib + Vorinostat; first compound 0.03162 µM)	relative viability (Masitinib + Vorinostat; first compound 0.1 µM)	relative viability (Masitinib + Vorinostat; first compound 0.3162 µM)	relative viability (Masitinib + Vorinostat; first compound 1 µM)
NCI-H1666	0.526	0.489	0.547	0.513	0.451	0.807	0.893	0.873	0.565	0.788	0.393	0.382	0.474	0.246	0.346	1.08	0.875	1.09	1.02	1.09
NCI-H1734	0.401	0.353	0.399	0.456	0.38	0.682	0.661	0.759	0.696	0.663	0.441	0.459	0.532	0.412	0.395	0.751	0.756	0.773	0.779	0.794
NCI-H1755	0.505	0.524	0.566	0.598	0.546	0.633	0.83	0.788	0.766	0.699		0.387	0.402	0.482	0.423	0.617	0.732	0.647	0.758	0.693
NCI-H1793	0.255	0.293	0.387	0.408	0.316	0.54	0.388	0.407	0.555	0.346	0.455	0.318	0.427	0.381	0.338	0.828	0.66	0.712	0.379	0.687
NCI-H1915	0.38	0.352	0.371	0.372	0.372		0.635		0.302	0.302		0.97	0.664	0.853	0.908		0.488		0.505	0.541
NCI-H1944	0.191	0.187	0.203	0.178	0.198		0.457		0.349	0.368		0.334	0.352	0.317	0.345		0.528		0.547	0.5
NCI-H1975	0.359	0.362	0.383	0.326	0.296	0.302	0.364	0.374	0.237	0.323	0.288	0.305	0.331	0.224	0.289	0.693	0.736	0.724	0.716	0.711
NCI-H1993	0.445	0.601	0.547	0.529	0.48	0.483	0.437	0.578	0.508	0.538	0.859		1.05	0.778	0.825	0.727	0.527	0.943	0.723	0.762
NCI-H2009	0.449	0.482	0.46	0.51	0.347	0.29	0.239	0.296	0.26	0.268	0.641	0.87	0.756	0.923	0.793	0.664	0.772	0.69	0.654	0.602
NCI-H2023	0.41	0.33	0.424	0.423	0.351	0.509	0.448	0.531	0.518	0.549	0.225	0.248	0.286	0.191	0.243	0.493	0.583	0.66	0.611	0.721
NCI-H2085	0.709	0.67	0.723	0.676	0.684	0.583	0.534	0.556	0.514	0.524	0.522	0.455	0.469	0.396	0.595	0.7	0.829	0.67	0.701	0.822
NCI-H2087	0.373	0.421	0.449	0.575	0.446	0.176	0.213	0.214	0.153	0.178	0.894	0.859	0.837	0.93	0.805	0.532	0.828	0.672	0.72	0.746
NCI-H2126	0.466	0.439	0.523	0.498	0.523	0.523	0.54	0.562	0.507	0.534	0.514	0.459	0.459	0.414	0.467	0.736	0.764	0.8	0.798	0.79
NCI-H2170	0.396	0.436	0.431	0.4	0.397	1.08	0.76	1.01	0.984	0.98	0.32	0.28	0.299	0.271	0.301	0.781	0.708	0.908	0.869	0.823
NCI-H2228	0.265	0.35	0.266	0.313	0.332	0.385	0.381	0.405	0.482	0.529	0.381	0.36	0.398	0.236	0.392	0.604	0.59	0.693	0.593	0.665
NCI-H2347	0.387	0.381		0.397	0.419	0.26	0.262	0.291	0.293	0.288	0.742	0.646	0.668	0.825	0.685	0.601	0.543	0.647	0.651	0.624
NCI-H2405	0.344	0.352	0.347	0.411	0.434	0.651	0.605	0.705	0.576	0.594	0.434	0.382	0.445	0.302	0.332	0.791	0.937	0.858	0.938	0.909

From the supplement of paper PMC10307832
